Numbered stars: 1 amine (or outer) side, 2 acyl side, 3 side chain; on linkers, the order of the positions; unused ones are H or OH. Bridge positions count the residues as written; N and C are the ends. Square brackets hold non-standard residues; d marks the D form. Peptide text beside a SMILES is read from it. Trp(βS-Me,7-OMe) = COc1cccc2c([C@H](C)[C@H](N)C(=O)O)c[nH]c12; Trp(1-CH2COOH) = N[C@@H](Cc1cn(CC(=O)O)c2ccccc12)C(=O)O; Trp(βS-Me) = C[C@@H](c1c[nH]c2ccccc12)[C@H](N)C(=O)O; X69 = O=C(O)C12CC(C[C@H](N[*:1])C(=O)[*:2])(C1)C2; Trp(7-Br) = N[C@@H](Cc1c[nH]c2c(Br)cccc12)C(=O)O; Trp(7-CN) = N#Cc1cccc2c(C[C@H](N)C(=O)O)c[nH]c12; Trp(7-Cl) = N[C@@H](Cc1c[nH]c2c(Cl)cccc12)C(=O)O; Phe(3-CONH2) = NC(=O)c1cccc(C[C@H](N)C(=O)O)c1; Phe(4-CONH2) = NC(=O)c1ccc(C[C@H](N)C(=O)O)cc1; Phe(4-COOH) = N[C@@H](Cc1ccc(C(=O)O)cc1)C(=O)O; Trp(7-aza) = N[C@@H](Cc1c[nH]c2ncccc12)C(=O)O; dPro(4S-NH2) = N[C@@H]1CN[C@@H](C(=O)O)C1; Pip(5R-OH) = O=C(O)[C@@H]1CC[C@@H](O)CN1; αMeW = C[C@](N)(Cc1c[nH]c2ccccc12)C(=O)O; X1 = O=C([C@@H]1CC[C@H](N[*:1])C1)[*:2]; Orn(N3) = [N-]=[N+]=NCCC[C@H](N)C(=O)O; X65 = O=C(CN(CC1(O)CC1)[*:1])[*:2]; Pip(4-aza) = O=C(O)[C@@H]1CNCCN1; 4Pal = N[C@@H](Cc1ccncc1)C(=O)O; dHyp = O=C(O)[C@H]1C[C@H](O)CN1; Ahp(2) = CCCCC[C@H](N)C(=O)O; Pip = O=C(O)[C@@H]1CCCCN1; αMeS = C[C@](N)(CO)C(=O)O; Nle = CCCC[C@H](N)C(=O)O; Dap = NC[C@H](N)C(=O)O; Sar = CNCC(=O)O

This experiment concerns the target T1, human soluble TNFR1 (sTNFR1) (Homo sapiens, UniProt P19438).
T1 construct: made in house; host or cells: Sf21 (baculovirus)
T1 sequence (P19438 with tags, fused parts or gaps): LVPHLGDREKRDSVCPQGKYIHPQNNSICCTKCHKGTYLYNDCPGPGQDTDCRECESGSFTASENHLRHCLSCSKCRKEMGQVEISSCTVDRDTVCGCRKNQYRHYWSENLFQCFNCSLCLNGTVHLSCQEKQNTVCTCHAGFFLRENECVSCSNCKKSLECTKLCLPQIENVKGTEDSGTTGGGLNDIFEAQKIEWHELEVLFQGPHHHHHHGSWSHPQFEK
The experiment can be described thus: Human sTNFR1-peptide displacement assay (LanthaScreen Eu TR-FRET binding assay). The protocol: A. Procedure for Human sTNFR1-Peptide Displacement Assay
The affinity was determined using LanthaScreen Eu-based time-resolved fluorescence resonance energy transfer (TR-FRET)-based binding assay.
A TR-FRET assay measuring the displacement of biotinylated peptide SEQ ID NO. 1 from human soluble TNFR1 (sTNFR1) in a pre-formed complex by a macrocyclic peptide yields the affinity (Kd^app) of the cyclic peptide for sTNFR1. The reagents for the assay include: the C′-terminally 6His-tagged sTNFR1 (residues 1-211) protein purified from a Sf21 baculovirus expression system, the biotin-tagged B0372 peptide described in section “Preparation of Final Compounds”, part E, the LanthaScreen™ anti-His Tag Europium donor (Life Technologies Corporation (San Diego, CA), cat. #PV5597), and a streptavidin-conjugate Alexa Fluor™ 647 acceptor (Invitrogen (Waltham, MA), cat. #S32357). Time-resolved TR-FRET is achieved when sTNFR1 is bound to biotinylated peptide SEQ ID NO. 1 through coupling of the donor and acceptor FRET pair.
100 nM biotinylated peptide SEQ ID NO. […] 100 nM biotinylated peptide SEQ ID NO. 1 was chosen as it reflects the ˜Kd for this complex. After 30 min at ambient temperature, each test peptide (2 mM stock in DMSO) is titrated in a 20 point, ˜3-fold discrete dose-response using an acoustic-dispense liquid handler. Specifically, 80 nL of peptide/DMSO is transferred into a ProxiPlate-384 Plus 384-well assay plate (PerkinElmer, cat. #6008289). To this plate, 8 μL of the previously formed sTNFR 1-biotinylated peptide SEQ ID NO. 1 complex is added and allowed to reach binding equilibrium with the test peptide at ambient temperature for 90 min.
The TR-FRET signal is measured with the following EnVision® settings: excitation laser at 337 nm; emission1=615 nm, emission2=665 nm, LANCE/DELFIA dichroic mirror, delay time=[…]. The signal of each well is determined as the ratio of the emission at 665 nm to that at 615 nm. Percent displacement is determined by normalization to control wells containing DMSO (0%) or a saturating concentration of a displaceable peptide (100%). The %-effect as a function of peptide concentration is fit to a five-parameter logistic fit based on the Morrison equation to account for tight binding kinetics.

Consider `CCCC[C@@H]1NC(=O)CSC[C@@H](C(N)=O)NC(=O)[C@H]([C@@H](C)c2c[nH]c3c(OC)cccc23)NC(=O)CN(C)C(=O)[C@H](Cc2ccc(O)cc2)NC(=O)[C@H](Cc2ccc(C(=O)O)cc2)NC(=O)[C@](C)(CO)NC(=O)[C@H](Cc2c[nH]c3c(Cl)cccc23)NC(=O)[C@H](Cc2ccncc2)NC(=O)[C@H](CC(N)=O)NC(=O)CN(CC2(O)CC2)C(=O)[C@H](Cc2c[nH]c3ccccc23)NC(=O)[C@@H]2CCCCN2C(=O)[C@H](Cc2ccncc2)NC1=O` [SEQ ID NO. 13] ({CH2CO}-[Nle][4Pal][Pip]W[X65]N[4Pal][Trp(7-Cl)][αMeS][Phe(4-COOH)]Y[Sar][Trp(βS-Me,7-OMe)]C-NH2; thioether N-14), for which the Kd amounted to 1 nM. The same measure, in the same setting: to `CCCC[C@@H]1NC(=O)[C@@H]2CC[C@@H](C2)NC(=O)[C@H]([C@@H](C)c2c[nH]c3c(OC)cccc23)NC(=O)CN(C)C(=O)[C@H](Cc2ccc(C(N)=O)cc2)NC(=O)[C@H](Cc2ccc(C(N)=O)cc2)NC(=O)[C@](C)(CO)NC(=O)[C@H](Cc2c[nH]c3c(C#N)cccc23)NC(=O)[C@H](CC23CC(C(=O)O)(C2)C3)NC(=O)[C@H](CC(N)=O)NC(=O)[C@H]2C[C@H](O)CN2C(=O)[C@H](Cc2c[nH]c3ncccc23)NC(=O)[C@@H]2CC[C@@H](O)CN2C(=O)[C@H](Cc2ccncc2)NC1=O` [SEQ ID NO. 26] (cyclo([4Pal][Pip(5R-OH)][Trp(7-aza)][dHyp]N[X69][Trp(7-CN)][αMeS][Phe(4-CONH2)][Phe(4-CONH2)][Sar][Trp(βS-Me,7-OMe)][X1][Nle])) belongs 0.24 nM; to `CCCCC[C@@H]1NC(=O)[C@@H]2CC[C@@H](C2)NC(=O)[C@H]([C@@H](C)c2c[nH]c3c(OC)cccc23)NC(=O)CN(C)C(=O)[C@H](Cc2cccc(C(N)=O)c2)NC(=O)[C@H](Cc2ccc(C(=O)O)cc2)NC(=O)[C@](C)(CO)NC(=O)[C@H](Cc2c[nH]c3c(Br)cccc23)NC(=O)[C@H](Cc2ccc(C(=O)O)cc2)NC(=O)[C@H](CC(N)=O)NC(=O)[C@H]2C[C@H](O)CN2C(=O)[C@H](Cc2c[nH]c3ccccc23)NC(=O)[C@@H]2CNCCN2C(=O)[C@H](Cc2ccncc2)NC1=O` [SEQ ID NO. 85] (cyclo([4Pal][Pip(4-aza)]W[dHyp]N[Phe(4-COOH)][Trp(7-Br)][αMeS][Phe(4-COOH)][Phe(3-CONH2)][Sar][Trp(βS-Me,7-OMe)][X1][Ahp(2)])), 0.11 nM. In the case of `C[C@@H](c1c[nH]c2ccccc12)[C@@H]1NC(=O)[C@H](CN)NC(=O)[C@H](Cc2ccc(O)cc2)NC(=O)[C@H](CCCN=[N+]=[N-])NC(=O)CSC[C@@H](C(N)=O)NC(=O)[C@](C)(Cc2c[nH]c3ccccc23)NC(=O)CN(C)C(=O)[C@H](Cc2c[nH]cn2)NC(=O)[C@H](Cc2ccc(C(=O)O)cc2)NC(=O)[C@](C)(CO)NC(=O)[C@H](Cc2c[nH]c3c(Cl)cccc23)NC(=O)[C@H](Cc2ccncc2)NC(=O)[C@H](CC(N)=O)NC(=O)[C@H]2CCCN2C1=O` [SEQ ID NO. 146] ({CH2CO}-[Orn(N3)]Y[Dap][Trp(βS-Me)][dP]N[4Pal][Trp(7-Cl)][αMeS][Phe(4-COOH)]H[Sar][αMeW]C-NH2; thioether N-14), the half-maximal inhibitory concentration (IC50) came to 0.59 nM. In turn, `CCCCC[C@@H]1NC(=O)[C@@H]2CC[C@@H](C2)NC(=O)[C@H]([C@@H](C)c2c[nH]c3c(OC)cccc23)NC(=O)CN(C)C(=O)[C@H](Cc2cn(CC(=O)O)c3ccccc23)NC(=O)[C@H](Cc2ccc(C(N)=O)cc2)NC(=O)[C@](C)(CO)NC(=O)[C@H](Cc2c[nH]c3c(C#N)cccc23)NC(=O)[C@H](Cc2ccc(C(=O)O)cc2)NC(=O)[C@H](CC(N)=O)NC(=O)[C@H]2C[C@H](N)CN2C(=O)[C@H](Cc2c[nH]c3ccccc23)NC(=O)[C@@H]2CC[C@@H](O)CN2C(=O)[C@H](Cc2ccncc2)NC1=O` [SEQ ID NO. 150] (cyclo([4Pal][Pip(5R-OH)]W[dPro(4S-NH2)]N[Phe(4-COOH)][Trp(7-CN)][αMeS][Phe(4-CONH2)][Trp(1-CH2COOH)][Sar][Trp(βS-Me,7-OMe)][X1][Ahp(2)])) had a dissociation constant Kd of 0.23 nM. That is a sub-nanomolar value.

Values taken from patent US20240287138A1, “CYCLIC PEPTIDES FOR INHIBITING TNF RECEPTOR 1 ACTIVITY” (Merck Sharp & Dohme LLC, priority 2023, published 2024).
